Like-named read-outs stand apart in the source and are kept apart here.

For test [1], the target named is T1, SOS1 catalytic domain (residues 564-1049) (Homo sapiens, UniProt Q07889).
T1 sequence (Q07889 564-1049): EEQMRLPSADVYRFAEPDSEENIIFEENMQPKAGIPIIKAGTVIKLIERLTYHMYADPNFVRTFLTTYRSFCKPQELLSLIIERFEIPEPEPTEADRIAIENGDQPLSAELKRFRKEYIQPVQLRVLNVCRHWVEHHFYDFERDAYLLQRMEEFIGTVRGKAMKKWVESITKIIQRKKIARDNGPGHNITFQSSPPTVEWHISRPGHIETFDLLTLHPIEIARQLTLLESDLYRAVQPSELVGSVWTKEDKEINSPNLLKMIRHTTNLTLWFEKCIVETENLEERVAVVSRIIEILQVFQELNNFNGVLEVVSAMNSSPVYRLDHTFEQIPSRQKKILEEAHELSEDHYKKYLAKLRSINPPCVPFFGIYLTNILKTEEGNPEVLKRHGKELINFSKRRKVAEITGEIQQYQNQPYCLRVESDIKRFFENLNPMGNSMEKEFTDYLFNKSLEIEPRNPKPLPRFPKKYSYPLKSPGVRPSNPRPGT
Briefly: Potency Assay: binding affinity to SOS1 using Surface Plasmon Resonance (SPR). Also noted: SOS1 catalytic domain (residues 564-1049) immobilized on a sensor chip. The settings on record: immobilized SOS1 catalytic domain (residues 564-1049), read-out: SOS1 SPR Equilibrium Kd. In a few lines:
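Avi-tagged SOS1 catalytic domain captured on streptavidin chip (~6000 RU) in 0.01 M HEPES, 0.15 M NaCl, 0.05% P20. Compound dilution series flowed at 50 μL/min for association, then buffer for dissociation, with double reference subtraction. Kd derived from end-of-association binding response plotted against concentration.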

The target in test [2] is T1, SOS1 catalytic domain (residues 564-1049). Nature of the test: Mode of Action Assay: inhibition of SOS1 nucleotide exchange activity (SOS1 TR-FRET IC50 Assay). (In general: In TR-FRET formats the signal depends on donor and acceptor labels being close together.)
Protocol: The purpose of this assay was to characterize the inhibitory activity of compounds on SOS1 nucleotide exchange of KRAS. Data was reported as IC50 values based on the TR-FRET signal.
Note—the following protocol describes a procedure for monitoring the inhibition of SOS1 nucleotide exchange activity of wild-type KRAS in response to a compound of the invention.
The SOS1/compound mixture was incubated at room temperature with constant mixing on an orbital shaker for 20 minutes to allow the reaction to reach equilibrium. […] This mixture was prepared immediately before addition to the SOS1/compound mixture to prevent intrinsic nucleotide exchange. Then 5 μL of the pre-incubated SOS1/compound mixture and 7.5 μL of the KRAS mixture were added sequentially in a 384-well low volume black round bottom plate and incubated at room temperature with constant shaking for 30 minutes. Time-resolved fluorescence was measured on a PerkinElmer Envision plate reader.
Three replicates were performed for each compound. Data were normalized by the following: (Positive control−Sample signal)/(Positive control−negative control)*100. The data were fit using a four-parameter logistic fit.
Test [3] concerns PC-9 cells (EGFR Ex19Del). Nature of the test: Potency Assay: pERK (SOS1 pERK IC50 Assay, AlphaLISA SureFire Ultra p-ERK1/2). The test is classed as cell-based. The settings on record: Homo sapiens, read-out: SOS1 pERK IC50. In a few lines: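 PC-9 (EGFR Ex19Del) cells plated overnight, then treated 1 h at 37° C. with 10-point 3-fold dilutions (top 10 μM final) in duplicate. Lysate pERK1/2 measured by AlphaLISA SureFire Ultra; IC50 from 4-parameter sigmoidal fit.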
For orientation: Bead proximity is the source of the signal in Alpha formats.

The mark [4] stands for this setting: PC-9 cells (EGFR Ex19Del), 1 hour incubation, AlphaLISA p-ERK1/2.

With `C[C@@H](Nc1nc(Cl)nc2c1CN(C(=O)N1CCOCC1)C2)c1cccc(C(F)(F)COC2CC2)c1F` [Example 469, [2-chloro-4-[[(1R)-1-[3-[2-(cyclopropoxy)-1,1-difluoro-ethyl]-2-fluoro-phenyl]ethyl]amino]-5,7-dihydropyrrolo[3,4-d]pyrimidin-6-yl]-morpholino-methanone], the Kd (usually the equilibrium constant for the complex coming apart) in test [1] is less than 400 nM. Moreover, the IC50 (usually the concentration needed to halve the response being measured) in test [2] is less than 1000 nM; in test [3] (PC-9, 1 h), less than 1000 nM.

With `CC(=O)N1CCN(C(=O)N2Cc3nc(Cl)nc(N[C@H](C)c4cccc(C(F)F)c4F)c3C2)CC1` [Example 394], the Kd in test [1] was less than 400 nM. Also, the IC50 in test [2] and in test [3] (setting [4]) was less than 1000 nM each time.

On to `C[C@@H](Nc1nc(Cl)nc2c1CN(C(=O)N1CCOCC1)C2)c1cccc(C(C)(F)F)c1F` [Example 478, 2-chloro-N-[(1R)-1-[3-(1,1-difluoroethyl)-2-fluorophenyl]ethyl]-6-(morpholine-4-carbonyl)-5H,6H,7H-pyrrolo[3,4-d]pyrimidin-4-amine], for which, in test [1], the Kd is less than 400 nM. Moreover, the IC50 in test [2] and in test [3] (setting [4]) was less than 1000 nM in each case.

Consider `C[C@@H](Nc1nc(Cl)nc2c1CN(C(=O)N1C[C@H]3COC[C@H]3C1)C2)c1cccc(C(F)F)c1F` [Example 410], for which the Kd in test [1] is less than 400 nM. For the same molecule, the concentration for half-maximal inhibition (IC50) in test [2] and in test [3] (setting [4]) was less than 1000 nM each time.

For the molecule `C[C@@H](Nc1nc(Cl)nc2c1CN(C(=O)N1CCNc3ncncc31)C2)c1cccc(C(F)(F)F)c1` [Example 362], the Kd in test [1] is less than 400 nM. The IC50 in test [2] and in test [3] (setting [4]) was less than 1000 nM each time.

With `C[C@@H](Nc1nc(Cl)nc2c1CN(C(=O)N1CCS(=O)(=O)CC1)C2)c1cc(N)cc(C(F)(F)F)c1` [Example 148], in test [1], the Kd was less than 400 nM. Besides, the IC50 in test [2] and in test [3] (setting [4]) was less than 1000 nM throughout.

On to `C[C@@H](Nc1nc(Cl)nc2c1C[C@H](N1CCOCC1)CC2)c1cccc(C(F)(F)CO)c1` [Example 437], for which the Kd in test [1] is less than 400 nM. In addition, the 50% inhibitory concentration (IC50) in test [2] and in test [3] (setting [4]) was less than 1000 nM each time.

`CC(Nc1nc(Cl)nc2c1CN(C(=O)N1CCOCC1)C2)c1cc(O)cc(C(F)(F)F)c1` (stereo not drawn) [Example 40, [2-chloro-4-[1-[3-hydroxy-5-(trifluoromethyl)phenyl]ethylamino]-5,7-dihydropyrrolo[3,4-d]pyrimidin-6-yl]-morpholino-methanone]: the dissociation constant (Kd) in test [1] was more than 400 nM. In addition, the half-inhibitory concentration (IC50) in test [2] and in test [3] (setting [4]) was more than 1000 nM each time.

`C[C@@H](Nc1nc(Cl)nc2c1CN(C(=O)c1csc(C3CCNCC3)n1)C2)c1cc(N)cc(C(F)(F)F)c1` [Example 92]: in test [1], the Kd is less than 400 nM. Further, the half-maximal inhibitory concentration (IC50) in test [2] and in test [3] (setting [4]) was more than 1000 nM in each case.

In the case of `COC1CCN(S(=O)(=O)N2CCc3nc(Cl)nc(N[C@H](C)c4cc(N)cc(C(F)(F)F)c4)c3C2)CC1` [Example 179], in test [1], the Kd is less than 400 nM. The concentration for half-maximal inhibition (IC50) in test [2] and in test [3] (setting [4]) was less than 1000 nM throughout.

For `CC(C)N1CC(C)(C(=O)N2Cc3nc(Cl)nc(N[C@H](C)c4cccc(C(F)F)c4F)c3C2)C1` [Example 338], the Kd in test [1] was less than 400 nM. Also, the 50% inhibitory concentration (IC50) in test [2] and in test [3] (setting [4]) was less than 1000 nM throughout.

On to `C[C@@H](Nc1nc(Cl)nc2c1CN(C(=O)N1CCOCC1)C2)c1cccc2c(F)coc12` [Example 468, [2-chloro-4-[[(1R)-1-(3-fluorobenzofuran-7-yl)ethyl]amino]-5,7-dihydropyrrolo[3,4-d]pyrimidin-6-yl]-morpholino-methanone], for which the Kd in test [1] is less than 400 nM. Moreover, the concentration for half-maximal inhibition (IC50) in test [2] and in test [3] (setting [4]) was less than 1000 nM throughout.

In the case of `C[C@@H](Nc1nc(Cl)nc2c1CN(C(=O)C1(O)COC1)C2)c1cccc(C(F)F)c1F` [Example 300], the Kd in test [1] is less than 400 nM. The IC50 in test [2] and in test [3] (setting [4]) was less than 1000 nM each time.

For `C[C@@H](Nc1nc(Cl)nc2c1CN(C(=O)C1(CO)COC1)CC2)c1cc(N)cc(C(F)(F)F)c1` [Example 225], the equilibrium dissociation constant (Kd) in test [1] is less than 400 nM. The IC50 in test [2] and in test [3] (setting [4]) was less than 1000 nM in each case.

Take `C[C@@H](Nc1nc(Cl)nc2c1CN(C(=O)c1cnccn1)CC2)c1cc(N)cc(C(F)(F)F)c1` [Example 246]: in test [1], the dissociation constant (Kd) is more than 400 nM. Further, the half-maximal inhibitory concentration (IC50) in test [2] and in test [3] (setting [4]) was more than 1000 nM throughout.

For the molecule `C[C@@H](Nc1nc(Cl)nc2c1CN(C(=O)C1(C)CN(CCF)C1)C2)c1cccc(C(F)F)c1F` [Example 342], in test [1], the Kd is less than 400 nM. The half-maximal inhibitory concentration (IC50) in test [2] and in test [3] (setting [4]) was less than 1000 nM throughout.

For the molecule `C[C@@H](Nc1nc(C2CNC2)nc2c1CN(C(=O)N1CCOCC1)C2)c1cccc(C(F)F)c1F` [Example 446, [2-(azetidin-3-yl)-4-[[(1R)-1-[3-(difluoromethyl)-2-fluoro-phenyl]ethyl]amino]-5,7-dihydropyrrolo[3,4-d]pyrimidin-6-yl]-morpholino-methanone], in test [1], the Kd was less than 400 nM. Also, the IC50 is less than 1000 nM in test [2] and more than 1000 nM in test [3] (setting [4]).

Take `COC1(C(=O)N2Cc3nc(CN)nc(N[C@H](C)c4cccc(C(F)(F)F)c4)c3C2)CCOCC1` [Example 350, (R)-(2-(aminomethyl)-4-((1-(3-(trifluoromethyl)phenyl)ethyl)amino)-5,7-dihydro-6H-pyrrolo[3,4-d]pyrimidin-6-yl)(4-methoxytetrahydro-2H-pyran-4-yl)methanone]: the dissociation constant Kd in test [1] was less than 400 nM. Further, the half-maximal inhibitory concentration (IC50) in test [2] and in test [3] (setting [4]) was less than 1000 nM in each case.

As for `COC1(C(=O)N2Cc3nc(Cl)nc(N[C@H](C)c4cccc(C(F)F)c4F)c3C2)CCN(CCF)CC1` [Example 343], the Kd in test [1] is less than 400 nM. Moreover, the 50% inhibitory concentration (IC50) in test [2] and in test [3] (setting [4]) was less than 1000 nM in each case.

For the molecule `CCC(Nc1nc(Cl)nc2c1CN(C(=O)N1CCOCC1)C2)c1cc(N)cc(C(F)(F)F)c1` (stereo not drawn) [Example 470, N-{1-[3-amino-5-(trifluoromethyl)phenyl]propyl}-2-chloro-6-(morpholine-4-carbonyl)-5H,6H,7H-pyrrolo[3,4-d]pyrimidin-4-amine], the Kd in test [1] is more than 400 nM. Moreover, the concentration for half-maximal inhibition (IC50) in test [2] was less than 1000 nM; in test [3] (PC-9, 1 h), less than 1000 nM.

Turning to `C[C@@H](Nc1nc(Cl)nc2c1CC(N1CC3(COC3)C1)CC2)c1cc(N)cc(C(F)(F)F)c1` (stereo partly drawn) [Example 433], the equilibrium dissociation constant (Kd) in test [1] was less than 400 nM. The IC50 in test [2] and in test [3] (setting [4]) was less than 1000 nM each time.

In the case of `C[C@@H](Nc1nc(Cl)nc2c1CN(C(=O)c1ccncn1)C2)c1cc(N)cc(C(F)(F)F)c1` [Example 73], the Kd in test [1] is less than 400 nM. Also, the IC50 in test [2] and in test [3] (setting [4]) was less than 1000 nM in each case.

For the molecule `C[C@@H](Nc1nc(Cl)nc2c1CN(S(=O)(=O)C1COC1)CC2)c1cc(N)cc(C(F)(F)F)c1` [Example 453], in test [1], the dissociation constant (Kd) is less than 400 nM. Further, the IC50 in test [2] and in test [3] (setting [4]) was less than 1000 nM in each case.

With `C[C@@H](Nc1nc(Cl)nc2c1CN(C(=O)N1CCOCC1)C2)c1cccc(C(F)F)c1` [Example 486, 2-chloro-N-[(1R)-1-[3-(difluoromethyl)phenyl]ethyl]-6-(morpholine-4-carbonyl)-5H,6H,7H-pyrrolo[3,4-d]pyrimidin-4-amine], the dissociation constant (Kd) in test [1] is less than 400 nM. Also, the results for the IC50 in test [2] and in test [3] (setting [4]) were less than 1000 nM and more than 1000 nM, respectively.

On to `COc1cnc(C(=O)N2Cc3nc(Cl)nc(N[C@H](C)c4cc(N)cc(C(F)(F)F)c4)c3C2)cc1OC` [Example 59], for which the dissociation constant (Kd) in test [1] was less than 400 nM. Besides, the IC50 in test [2] and in test [3] (setting [4]) was less than 1000 nM in each case.

The values above are taken from US20230096028A1, “BICYCLIC HETEROCYCLYL COMPOUNDS AND USES THEREOF” (Revolution Medicines, Inc., priority 2019, published 2023).
